Experimental data as given in patent US10889572B2, “Reactive oxygen species scavengers and use for treating diseases” (XW LABORATORIES INC., priority 2017, dated 2021).
Read-outs that look alike come from different tables or passages of the source.

Experiments:
[1] = tested on: HT-1080 (fibrosarcoma) cells; experiment: Primary screening by ferroptosis assay (Erastin-induced, cell viability, CellTiter-Glo); format: cell-based; details: HT-1080 cells, % remaining activity, read-out: EC50, Inhibition for Ferroptosis in HT-1080 Cell
Experimental: Cell Lines and Media: HT-1080 (fibrosarcoma) cells were obtained from American Type Culture Collection. Cells were grown in EMEM media, 10% Heat-Inactivated FBS, and penicillin-streptomycin mix (Invitrogen). Cells were maintained at 37° C. and 5% CO2 in a tissue culture incubator.
Cell Viability Assay: Seed 10,000 cell/well of HT-1080 cells with 195 μL growth media in black and clear bottom 96-well plates (Cat #Corning 3904) and allow cells to adhere overnight. The next day, dilute test compound by 2-fold dilution into 12 points with medium containing 400 μM Erastin. Transfer 5 μL of compounds solution into growth medium in triplicated wells. 30 hours later, add Cell Titer-Glo® Luminescent cell viability assay reagent (Cat #, Promega G8081) to measure HT-1080 cell viability according to the manufacture protocol. Briefly, aspirate 100 μL medium, and add 50 μL CellTiter-Glo® Luminescent reagent to each well and incubated for 30 minutes at room temperature to stabilize the Luminescent signal. Seal the plates and centrifuged for 1 minute at 1,000 rpm to remove bubbles. Shake the plates for 1 minute on an orbital shaker. Read the plate to detect Luminescent signal with EnSpire Multimode Plate Reader (PerkinElmer). The remaining activity % is used to evaluate Erastin induced ferroptosis in HT-1080 cells and expressed as the following formula: % Remaining Activity−100×[(Sample−Backgroundavg)/(Vehicle−Background avg)]
Sample: Readout from the test compound
Vehicle: Readout from the vehicle sample
Background: Readout from the Erastin only treatment
Dose response curve is graphed by using the non-linear regression analysis (formula equation 201) in XLFit (Excel add-in software) for the average % remaining activity from triplicates, and the EC50 values is then calculated. In this anti-ferroptosis assay, ferrostatin-1, and XJB-5-131 are included as reference. The acceptance criteria were set based on historical result, mean±2.58*SD in logarithmic scale, meanwhile Z′>0.5.

[2] = tested on: 3T3-L1 cells; experiment: Apoptosis assay (Caspase-Glo 3/7, Actinomycin D induced); format: cell-based; details: 100 nM Actinomycin D, 48 hours, Caspase-Glo 3/7, 2 hours pre-treatment, read-out: EC50, Inhibition for Apoptosis in 3T3-L1 Cell induced by Actinomycin D
Experimental: Cell Lines and Media. 3T3-L1 cells were obtained from American Type Culture Collection. Cells were grown in DMEM completed media, 10% FBS, and penicillin-streptomycin mix (Invitrogen). Cells were maintained at 37° C. and 5% CO2 in a tissue culture incubator.
Apoptosis Assay. […] We used this assay to screen our compounds for apoptosis inhibition. Briefly, 40 μL of 3000 3T3-L1 cells were seeded per well in 384 well plates, cells were allowed to adhere overnight. In the next day, prepare the Actinomycin D as the apoptosis inducing agent into 100 μM DMSO stock. Prepare the test compounds into 10 mM DMSO stock. Serial dilute the compound into 10 points by 3-fold dilution with DMSO. Pre-treat the 3T3-L1 cells with test compound by transfer 40 nL of stock of serial concentration in triplicate wells using acoustic fluid transfer, incubate for 2 hours. Then transfer 40 nL of 100 μM of Actinomycin D (final concentration is 100 nM) into designated wells using acoustic fluid transfer. Incubate the assay plates at 37° C., 5% CO2, 95% humidity incubator for 48 hours. For caspase assay, add 20 μL/well of Caspase-Glo>3/7 reagent (Promega) into test wells. Incubate for 30 minutes at room temperature to stabilize the luminescence signal. Read the plate with EnSpire Multimode Plate Reader (PerkinElmer). Calculate the EC50 value using formula equation 201: y−(A+((B−A)/(1+((x/C)^D)))) from the XLFit (Excel add-in software), where
A: Average mean of vehicle samples
B: Average mean of cells treated with 100 nM AcD
Z′ factor was used to describe the screening assay perfonuance. The Z′ factor value was >0.5 in all the test plates which indicated the assay was qualified and the IC50 value was reliable for all tested compounds.

Row | Compound | EC50 ([1]; 30 hours) [nM] | EC50 [2] [nM] | EC50 ([1]; Homo sapiens, HT-1080, 30 h) [nM] | EC50 ([2]; Mus musculus, 3T3-L1) [nM] | EC50 ([1]; Homo sapiens, 30 hours) [nM]
1 | 1-Oxyl-2,2,6,6-tetramethylpiperidin-4-yl-N-[(4S)—4-{[(2S)-1-[(2S,3E,5S)-2-benzyl-5-{[(tert- butoxy)carbonyl]amino}-7-methyloct-3-enoyl]pyrrolidin-2-yl]formamido}-4-[(1-oxyl-2,2,6,6-tetramethylpiperidin-4-yl)carbamoyl]butyl]carbamate [Example XXXXII] | 274 | 708 |  |  | 
2 | CC(C)C[C@@H](/C=C/[C@H](Cc1ccccc1)C(=O)N1CCC[C@H]1C(=O)NC(CCCNC(=O)OCc1ccccc1)C(=O)NC1CC(C)(C)N(O)C(C)(C)C1)NC(=O)OC(C)(C)C (stereo in doubt) [Example V, Benzyl N-[(4R)—4-{[(2S)-1-[(2S,3E,5S)-2-benzyl-5-{[(tert-butoxy)carbonyl]amino}-7-methyloct-3-enoyl]pyrrolidin-2-yl]formamido}-4-[(1-hydroxy-2,2,6,6-tetramethylpiperidin-4-yl)carbamoyl]butyl]carbamate] |  |  | 141 | 1310 | 
3 | CC(C)C[C@@H](/C=C/[C@H](Cc1ccccc1)C(=O)N1CCC[C@H]1C(=O)N[C@@H](CCCNC(=O)OCc1ccccc1)C(=O)NC1CC(C)(C)N(O)C(C)(C)C1)NC(=O)OC(C)(C)C [Example I, Benzyl N-[(4S)—4-{[(2S)-1-[(2S,3E,5S)-2-Benzyl-5-{[(Tert-Butoxy)Carbonyl]Amino}-7-Methyloct-3-Enoyl]Pyrrolidin-2-Yl]Formamido}-4-[(1-Oxyl-2,2,6,6-Tetramethylpiperidin-4-Yl)Carbamoyl]Butyl]Carbamate] | 260 | 1580 |  |  | 
4 | CC(C)C[C@@H](/C=C/[C@H](Cc1ccccc1)C(=O)N1CCC[C@H]1C(=O)N[C@@H](C(=O)NC1CC(C)(C)N([O])C(C)(C)C1)C(C)C)NC(=O)OC(C)(C)C [Example II, tert-Butyl ((4S,7S,E)-7-benzyl-8-((S)-2-(((R)-1-((1-oxyl-2,2,6,6-tetramethylpiperidin-4-yl)amino)-3-methyl-1-oxobutan-2-yl)carbamoyl)pyrrolidin-1-yl)-2-methyl-8-oxooct-5-en-4-yl)carbamate] |  |  |  | 3040 | 289
5 | CC(C)C[C@@H](/C=C/[C@H](Cc1ccccc1)C(=O)N1CCC[C@H]1C(=O)N[C@@H](C(=O)N[C@@H](CCCNC(=O)OCc1ccccc1)C(=O)NC1CC(C)(C)N(O)C(C)(C)C1)C(C)C)NC(=O)OC(C)(C)C [Example IV] |  |  |  | 1270 | 564
6 | CC(C)C[C@@H](/C=C/[C@H](Cc1ccccc1)C(=O)N1CCC[C@H]1C(=O)N[C@@H](CCCNC(=O)OCc1ccccc1)C(=O)NC1CC(C)(C)N(O)C(C)(C)C1)NC(=O)OC(C)(C)C [Example IX, Benzyl N-[(4S)—4-{[(2S)-1-[(2S,3E,5S)-2-benzyl-5-{[(tert-butoxy)carbonyl]amino}-7-methyloct-3-enoyl]pyrrolidin-2-yl]formamido}-4-[(1-hydroxy-2,2,6,6-tetramethylpiperidin-4-yl)carbamoyl]butyl]carbamate] | 261 |  |  | 1370 | 
7 | CC(C)C[C@@H](/C=C/[C@H](Cc1ccccc1)C(=O)N1CCC[C@@H]1C(=O)N[C@H](C(=O)N[C@@H](CCCNC(=O)OCc1ccccc1)C(=O)NC1CC(C)(C)N(O)C(C)(C)C1)C(C)C)NC(=O)OC(C)(C)C [Example VII, Benzyl N-[(4S)-4-[(2S)—2-{[(2R)-1-[(2S,3E,5S)-2-benzyl-5-{[(tert-butoxy)carbonyl]amino}-7-methyloct-3-enoyl]pyrrolidin-2-yl]formamido}-3-methylbutanamido]-4-[(1-hydroxy-2,2,6,6-tetramethylpiperidin-4-yl)carbamoyl]butyl]carbamate] |  |  |  | 4640 | 342
8 | CC(C)C[C@@H](/C=C/[C@H](Cc1ccccc1)C(=O)N1CCC[C@H]1C(=O)N[C@@H](C(=O)N[C@@H](CCCNC(=O)OCc1ccccc1)C(=O)NC1CC(C)(C)N(O)C(C)(C)C1)C(C)C)NC(=O)OCC1CC1 [Example X, Cyclopropylmethyl N-[(4S,5E,7S)-7-benzyl-8-[(2S)—2-{[(1R)—1-{[(1S)—4-{[(benzyloxy)carbonyl]amino}-1-[(1-hydroxy-2,2,6,6-tetramethylpiperidin-4-yl)carbamoyl]butyl]carbamoyl}-2-methylpropyl]carbamoyl}pyrrolidin-1-yl]-2-methyl-8-oxooct-5-en-4-yl]carbamate] |  |  |  | 1380 | 285
9 | CC(C)C[C@@H](/C=C/[C@H](Cc1ccccc1)C(=O)N1CCC[C@H]1C(=O)N[C@@H](CCCNC(=O)OC1CC(C)(C)N(O)C(C)(C)C1)C(=O)OC(C)C)NC(=O)OC(C)(C)C [Example XXIX, Propan-2-yl (2S)—2-{[(2S)-1-[(2S,3E,5S)-2-benzyl-5-{[(tert-butoxy)carbonyl]amino}-7-methyloct-3-enoyl]pyrrolidin-2-yl]formamido}-5-({[(1-oxyl-2,2,6,6-tetramethylpiperidin-4-yl)oxy]carbonyl}amino)pentanoate] |  |  | 73 | 4320 | 
10 | CC(C)C[C@@H](/C=C/[C@H](Cc1ccccc1)C(=O)N1CCC[C@H]1C(=O)N[C@@H](CCCCNC(=O)OCc1ccccc1)C(=O)NC1CC(C)(C)N(O)C(C)(C)C1)NC(=O)OC(C)(C)C [Example XXVI, Benzyl N—[(5 S)—5-{[(2S)-1-[(2S,3E,5S)-2-benzyl-5-{[(tert-butoxy)carbonyl]amino}-7-methyloct-3-enoyl]pyrrolidin-2-yl]formamido}-5-[(1-oxyl-2,2,6,6-tetramethylpiperidin-4-yl)carbamoyl]pentyl]carbamate] |  |  | 140 | 683 | 
11 | CC(C)CC(C=CC(Cc1ccccc1)C(=O)N1CCCC1C(=O)NC(CCCNC(=O)OC1CC(C)(C)N([O])C(C)(C)C1)C(N)=O)NC(=O)OC(C)(C)C [Example XXVIII, tert-Butyl N-[(4S,5E,7S)-7-benzyl-8-[(2S)—2-{[(1S)-1-carbamoyl-4-({[(1-oxyl-2,2,6,6-tetramethylpiperidin-4-yl)oxy]carbonyl}amino-)butyl]carbamoyl}pyrrolidin-1-yl]-2-methyl-8-oxooct-5-en-4-yl]carbamate] | 251 | 3930 |  |  | 
12 | COC(=O)[C@H](CCCNC(=O)OC1CC(C)(C)N(O)C(C)(C)C1)NC(=O)[C@@H](NC(=O)[C@@H]1CCCN1C(=O)[C@H](/C=C/[C@H](CC(C)C)NC(=O)OC(C)(C)C)Cc1ccccc1)C(C)C [Example XXXVIII, (S)—Methyl 2-((S)-2-((S)-1-((2S,5S,E)-2-benzyl-5-((tert-butoxycarbonyl)amino)-7-methyloct-3-enoyl)pyrrolidine-2-carboxamido)-3-methylbutanamido)—5-((((1-oxyl-2,2,6,6-tetramethylpiperidin-4-yl)oxy)carbonyl)amino)pentanoate] |  |  | 76 | 2650 | 
13 | CC(C)C[C@@H](/C=C/[C@H](Cc1ccccc1)C(=O)N1CCC[C@H]1C(=O)N[C@@H](CCCNC(=O)OC1CC(C)(C)N(O)C(C)(C)C1)C(=O)NC(C)C)NC(=O)OC(C)(C)C [Example XXXXIV, tert-Butyl N-[(4S,5E,7S)-7-benzyl-8-[(2S)—2-{[(1S)-4-({[(1-oxyl-2,2,6,6-tetramethylpiperidin-4-yl)oxy]carbonyl}amino)-1-[(propan-2-yl)carbamoyl]butyl]carbamoyl}pyrrolidin-1-yl]-2-methyl-8-oxooct-5-en-4-yl]carbamate] |  |  | 140 | 628 | 
